Laboratory results: patent US6492180B2, “Non-invasive transdermal detection of analytes” (priority 1998, dated 2002)

How the values were obtained:
[1] = In vitro 3H-cocaine transport through swine skin, diffusion cells; format: in vitro ADME; conditions: donor 20 μCi/ml, receptor 50% NMP:H2O
Protocol: The receptor solution (50% NMP:H2O) was loaded in the lower chamber. Samples from the lower chamber (100 μl) were taken every hour and counted.

[2] = tested on: rats; test: Detection of 14C-caffeine administered to rats: tissue radioactivity and hydrogel extraction; format: in vivo, rat; conditions: 2.5 hours
Protocol: Rats were shaven and fasted for 24 hours prior to caffeine administration by intraperitoneal injection of ^14C labeled caffeine to the 600 gram rats. Each animal received approximately 16.7 μCi of ^14C caffeine via intraperitoneal injection of 0.5 mL of ethanol and water.
A 50% NMP:50% water-Pluronic® F127 hydrogel was applied to 2.4 cm diameter plastic disks. The disks were attached to a jacket which was affixed to the backs of the rats. The disks were removed after 2.5 hours. The gel was removed and counted. The rats were sacrificed and blood and tissue were removed for analysis from each animal. The tissue samples were placed in liquid scintillation vials with 1.5 mL of Soluene® (Packard Instruments, Downers Grove, Ill.) in order to dissolve the tissues for valid liquid scintillation counting.

[3] = tested on: rats; test: In vivo extraction of lead through the skin of lead-fed rats with NMP hydrogel; blood lead; design: species or system rat; conditions: Sprague Dawley rats, 750-1,000 ppm lead acetate in water supply, tail vein blood, for several weeks
Protocol: Determinations of blood lead (Pb) concentrations were conducted by obtaining a blood sample from the tail vein of the animals and analyzing them using an ESA brand LeadCare® Analyzer (Chelmsford, Mass.).
At that time, a clear hydrogel formulation containing 1 gram of the copolymer Pluronic® F127 (BASP), and 2.0 mL of deionized water and 2.0 mL of N-methyl pyrrolidone (Pharmasolve®, ISP, Wayne, N.J.) was prepared. Approximately 1.2 grams of hydrogel was applied to a 2.4 cm diameter polypropylene plastic disk. The disks were attached to a jacket which was affixed to the backs of the rats. The disks were removed after 1 hour.

[4] = rat, about 16.7 μCi 14C caffeine i.p.

## COC(=O)[C@H]1[C@@H](OC(=O)c2ccccc2)C[C@@H]2CC[C@H]1N2C [^3H-cocaine, cocaine]
[1]
  flux through pig skin in vitro: 0.00317 μg/cm^2/hr

## Cn1c(=O)c2c(ncn2C)n(C)c1=O [^14C caffeine, caffeine]
[2]; extracted through rat skin into 50% NMP:50% water-Pluronic F127 hydrogel
  Radioactivity (mean dpm ± SD), NMP-Pluronic F127 Hydrogel: 58.82 dpm/cm^2/hr
[2]; [4]
  Radioactivity (mean dpm ± SD), Blood: 87.24 dpm/μL
  Radioactivity (mean dpm ± SD), Muscle: 64.30 ± 8.73 dpm/mg
  Radioactivity (mean dpm ± SD), Skin: 52.15 ± 0.07 dpm/mg

## CC(=O)[O-].CC(=O)[O-].[Pb+2] [lead acetate]
[3]
  blood lead levels: 50 to 60 µg/dL
